Results from patent EP2945948B1, “CRYSTALLINE FORM II OF ANAGRELIDE HYDROCHLORIDE MONOHYDRATE” (Synthon BV, priority 2013, dated 2014).
Entries after “also recorded” stand apart in the source; their conditions may differ. Structures can show the parent of a compound that is named as a salt. One block for each compound: values may come before it.

Assays:
[1] = cited from earlier work
[2] = Stability of form II: suspension stirred in solvent, solid analysed by XRPD; type: physicochemical
Experimental: 2.0 g of anagrelide hydrochloride monohydrate form II was suspended in 20 ml solvent. […] At certain time points, a small amount of the suspension was filtered over a P3-glass filter (reduced pressure). The solids were air-dried overnight at RT.
(§1) In the above examples, the XRPD patterns were recorded on a Bruker-AXS D8 vario (Θ/2Θ geometry, reflection mode, Vantec PSD detector) operating at the following settings: […]

[3] = Conversion study in ethanol at specified stirring temperature, XRPD; type: physicochemical; details: for Crystal form (XRPD): ethanol, stirring time 2 hours only
Experimental: The suspension was filtered over a P3-glass filter (reduced pressure), washed with solvent and dried.
as §1

[4] = Stability of form I: suspension stirred in solvent, solid analysed by XRPD; type: physicochemical; details: RT
Experimental: […] The suspension was filtered over a P3-glass filter (reduced pressure), washed with solvent and dried.
as §1

[5] = Polymorphic stability on exposure to air / air-drying; type: physicochemical
[6] = Instant solubility in buffers, Milli-Q water and 0.1 M HCl (HPLC-UV); type: physicochemical; details: USP acetate buffer pH 4.5, USP phosphate buffer pH 6.8, Milli-Q water and 0.1 M HCl; room temperature; 0-60 minutes; Figure 5; hydrochloride monohydrate
Experimental: The instant solubility of anagrelide hydrochloride monohydrate form II, form I and free base was determined in USP acetate buffer pH 4.5, USP phosphate buffer pH 6.8, Milli-Q water (herein below "MQ") and 0.1 M HCl. About 30 mg of the drug substance was transferred into a clear 50 ml sample jar and a stirring bar was added. Subsequently 30 ml of test medium was added; the vial was closed and placed on a magnetic stirrer. Under constant stirring at room temperature samples of 2 ml were taken at t=0, 10, 20, 30, 40, 50, and 60 minutes. The samples were immediately filtered through a 0.45 µm syringe disk filter (first ml was discarded) and analyzed at once with the HPLC-UV method described in Table 1. The solubility was calculated in mg/ml anagrelide free base against an external standard (AGL.hcl.mhy.120310) dissolved in acetonitrile/milli-Q (ACN/MQ) (50:50). Table 1 HPLC-UV parameters used for instant solubility testing

- converts into anagrelide free base ([2]; in water): 30 to 180 min
SMILES: O=C1CN2Cc3c(ccc(Cl)c3Cl)N=C2N1 [Anagrelide hydrochloride monohydrate]
- solubility in water [1]: very slightly soluble

- Crystal form (XRPD) ([3]; stirring temperature 72.5 °C): I + II
- Crystal form (XRPD) ([3]; stirring temperature 75 °C): mostly I, some II left
SMILES: Cl.O.O=C1CN2Cc3c(ccc(Cl)c3Cl)N=C2N1 [anagrelide hydrochloride monohydrate]

- transition point ([3]; form II / form I, suspension in ethanol): around 72.5 °C
- stable at temperatures ([3]; suspension in ethanol): below 70 °C
- polymorphic change on air-drying ([5]; air-drying at ambient temperature): does not cause any polymorphic change
- XRPD ([2]; 2-propanol, 30 min, RT): Form II
- XRPD ([2]; 2-propanol, 60 min, RT): Form II
- XRPD ([2]; 2-propanol, 120 min, RT): Form II
- XRPD ([2]; 2-propanol, overnight, RT): Form II
- XRPD ([2]; Demi-water, 30 min, RT): Form II + anagrelide base
- XRPD ([2]; Demi-water, 60 min, RT): Form II + anagrelide base
- XRPD ([2]; Demi-water, 120 min, RT): Form II + anagrelide base
- XRPD ([2]; Demi-water, 180 min, RT): Anagrelide base
- XRPD ([2]; Ethanol, 30 min, RT): Form II
- XRPD ([2]; Ethanol, 60 min, RT): Form II
- XRPD ([2]; Ethanol, 120 min, RT): Form II
- XRPD ([2]; Ethanol, 3 hours, reflux): Form I
- XRPD ([2]; Ethanol, overnight, RT): Form II
- instant solubility compared to form I [6]: more soluble; also recorded: higher
SMILES: O=C1CN2Cc3c(ccc(Cl)c3Cl)N=C2N1 [form II, anagrelide hydrochloride monohydrate]
- polymorphic stability ([2]; ambient temperature, ethanol, 2-propanol, acetone, ethyl acetate, compared with form I): polymorphically stable at ambient temperature and even more stable than form I
- stability against aqueous hydrolysis ([2]; stirred in demi-water for up to 180 minutes, compared with form I): more stable against aqueous hydrolysis than form I

Continued, compound first:

SMILES: O=C1CN2Cc3c(ccc(Cl)c3Cl)N=C2N1 [form I, anagrelide hydrochloride monohydrate]
- XRPD ([4]; 2-propanol, 16 hours): Form I + II
- XRPD ([4]; Acetone, 2 days): Form II
- XRPD ([4]; Demi-water, 30 min): Anagrelide base
- XRPD ([4]; Demi-water, 180 min): Anagrelide base
- XRPD ([4]; Ethanol, 30 min): Form II
- XRPD ([4]; Ethanol, 16 hours): Form II
- XRPD ([4]; Ethyl acetate, 2 days): Form II

SMILES: O=C1CN2Cc3c(ccc(Cl)c3Cl)N=C2N1 [form III, anagrelide hydrochloride monohydrate]
- stability when exposed to air ([5]; exposed to air): converts into form I or a mixture of forms I and II
